Among the data in PubChem BioAssay (NCI) are TGI and GI50 values, retold here.

Test systems include A498 renal; A549 NSCLC; CCRF-CEM leukemia; HOP-92 NSCLC; MALME-3M melanoma; SF-539 CNS; SK-MEL-5 melanoma; SNB-19 CNS; SK-OV-3 ovarian; UO-31 renal.
Common to all, as to assay: NCI-60 cell line screen, 48 h

The structures appear in SMILES notation.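 96-well plates; 48 h exposure; 5 concentrations. Endpoints by linear interpolation between flanking doses. Not reached: highest tested concentration assigned. GI50 = concentration required for 50% inhibition of growth. TGI marks complete inhibition of growth.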

For the molecule `CNc1cc2oc(=O)cc(C)c2cc1C`, the TGI in the assay with A498 renal, with A549 NSCLC, with CCRF-CEM leukemia, in the assay with HOP-92 NSCLC, with MALME-3M melanoma and in the assay with SF-539 CNS was > 100 µM each time. For the same molecule, the TGI in the assay with SK-MEL-5 melanoma and in the assay on SNB-19 CNS was > 100 µM in each case.

`CCCCCCCCc1cc2c(O)c(c1)Cc1cc(CCCCCCCC)cc(c1O)Cc1cc(CCCCCCCC)cc(c1O)Cc1cc(CCCCCCCC)cc(c1O)Cc1cc(CCCCCCCC)cc(c1O)Cc1cc(CCCCCCCC)cc(c1O)C2`: the TGI in the assay on A498 renal, with A549 NSCLC, in the assay with CCRF-CEM leukemia, with HOP-92 NSCLC, with MALME-3M melanoma and in the assay on SF-539 CNS was > 100 µM throughout. Moreover, the TGI in the assay with SK-OV-3 ovarian, in the assay on SNB-19 CNS and in the assay with UO-31 renal was > 100 µM in each case.

`O=[N+]([O-])c1cccnc1N=Nc1c(O)[nH]c2ccccc12`: the TGI is > 100 µM in the assay on A498 renal; 47.7 µM in the assay with A549 NSCLC; > 100 µM with HOP-92 NSCLC; 56.3 µM with MALME-3M melanoma; 12.7 µM with SF-539 CNS; 69.5 µM in the assay on SK-OV-3 ovarian. Further, the TGI with SNB-19 CNS was found to be 58.5 µM; in the assay on UO-31 renal, 81.2 µM.

In the case of `CN(Cc1cnc2nc(N)nc(N)c2n1)c1ccc(C(=O)N[C@@H](CCS(=O)(=O)O)C(=O)O)cc1`, the TGI in the assay with A498 renal, in the assay on A549 NSCLC, in the assay on CCRF-CEM leukemia, in the assay with HOP-92 NSCLC, in the assay with MALME-3M melanoma and in the assay with SF-539 CNS was > 100 µM in each case. In addition, the TGI in the assay with SK-MEL-5 melanoma, in the assay on SK-OV-3 ovarian, in the assay with SNB-19 CNS and with UO-31 renal was > 100 µM in each case.

On to `O=C(Nc1nc(-c2c[nH]c3ccccc23)cs1)c1n[nH]c(=O)c2ccccc12`, for which the GI50 is 22 µM in the assay with A498 renal; 1.57 µM in the assay with A549 NSCLC; 1.27 µM in the assay on CCRF-CEM leukemia; > 30.6 µM with HOP-92 NSCLC; 18.7 µM in the assay on MALME-3M melanoma; 1.68 µM in the assay on SF-539 CNS. Further, the GI50 was 1.44 µM in the assay with SK-MEL-5 melanoma, 12.6 µM in the assay on SK-OV-3 ovarian, > 34.5 µM in the assay on SNB-19 CNS and 8.46 µM in the assay on UO-31 renal. Also, the TGI in the assay on A498 renal is > 100 µM; in the assay with A549 NSCLC, 83.6 µM; with CCRF-CEM leukemia it was 98.8 µM; in the assay with HOP-92 NSCLC it was > 100 µM; with MALME-3M melanoma, 80 µM; in the assay with SF-539 CNS, > 57.6 µM. For the same molecule, the TGI in the assay on SK-MEL-5 melanoma is > 100 µM; in the assay on SK-OV-3 ovarian, > 100 µM; in the assay on SNB-19 CNS it was > 75 µM; in the assay on UO-31 renal, > 67.7 µM.

In the case of `Cc1cc2c(cc1C)[n+](=O)cc(C(=O)C/C(=N/NC(=S)NN)C(=O)Nc1cccc(C(F)(F)F)c1)n2[O-]`, the TGI with A498 renal, with A549 NSCLC, with CCRF-CEM leukemia, in the assay on HOP-92 NSCLC, in the assay on MALME-3M melanoma and in the assay with SF-539 CNS was > 100 µM in each case. The TGI in the assay with SK-MEL-5 melanoma, in the assay on SK-OV-3 ovarian, with SNB-19 CNS and with UO-31 renal was > 100 µM throughout.

For the molecule `COc1ccc(-c2c(C#N)c(N3CCOCC3)nc3[nH]c(=S)[nH]c(=S)c23)cc1OC`, the GI50 is > 100 µM with A498 renal; > 100 µM in the assay on A549 NSCLC; 41.3 µM in the assay on CCRF-CEM leukemia; 48.2 µM with HOP-92 NSCLC; 39.1 µM in the assay with SF-539 CNS; 27.5 µM in the assay with SK-MEL-5 melanoma. The GI50 with SK-OV-3 ovarian is 29.1 µM; with SNB-19 CNS, > 100 µM; in the assay with UO-31 renal it was 82.1 µM. In addition, the TGI in the assay on A498 renal, in the assay with A549 NSCLC, with CCRF-CEM leukemia, in the assay with HOP-92 NSCLC, in the assay on SF-539 CNS and in the assay on SK-MEL-5 melanoma was > 100 µM each time. Moreover, the TGI with SK-OV-3 ovarian, in the assay with SNB-19 CNS and with UO-31 renal was > 100 µM in each case.

On to `O=C1C/C(Br)=C\c2ccccc2-c2ccccc21`, for which the TGI in the assay with A498 renal worked out at 22.5 µM; in the assay on A549 NSCLC, 21.8 µM; in the assay on CCRF-CEM leukemia, 10.4 µM; in the assay on HOP-92 NSCLC, 5.27 µM; with MALME-3M melanoma it was 4.94 µM; in the assay on SF-539 CNS, 4.85 µM. Further, the TGI in the assay with SK-MEL-5 melanoma is 16 µM; in the assay with SK-OV-3 ovarian, 10.1 µM; with SNB-19 CNS, 19.5 µM; in the assay on UO-31 renal it was 6.87 µM.

As to `COc1cc2c3c(n(C)c(=O)c2cc1OC)-c1cc2c(cc1C3=O)OCO2`, the TGI with A498 renal is > 97 µM; with A549 NSCLC, > 100 µM; in the assay on CCRF-CEM leukemia, 22.5 µM; with HOP-92 NSCLC, > 100 µM; in the assay on MALME-3M melanoma it was > 100 µM; in the assay with SF-539 CNS, 23.9 µM. In addition, the TGI is > 44.8 µM in the assay on SK-MEL-5 melanoma, > 100 µM in the assay on SK-OV-3 ovarian, > 100 µM in the assay on SNB-19 CNS and > 100 µM in the assay on UO-31 renal.

With `COc1cc2c(cc1OCCCN1CCN(CCCOc3cc4c(cc3OC)C(=O)N3CC(F)(F)C[C@H]3C=N4)CC1)N=C[C@@H]1CC(F)(F)CN1C2=O`, the GI50 in the assay on A498 renal is 2.43 µM; in the assay on A549 NSCLC, 7.32 µM; with CCRF-CEM leukemia it was 0.979 µM; in the assay on HOP-92 NSCLC, 6.14 µM; with MALME-3M melanoma it was 2.8 µM; in the assay on SF-539 CNS, 3.05 µM. Also, the GI50 in the assay on SK-MEL-5 melanoma is 1.86 µM; in the assay with SK-OV-3 ovarian, 8.64 µM; with SNB-19 CNS, 4.08 µM; in the assay on UO-31 renal, 11.4 µM. For the same molecule, the TGI with A498 renal is 5.95 µM; with A549 NSCLC, 43 µM; with CCRF-CEM leukemia it was 8.51 µM; in the assay on HOP-92 NSCLC, 76.3 µM; in the assay with MALME-3M melanoma, 6.34 µM; with SF-539 CNS it was 9.15 µM. The TGI was 4.16 µM with SK-MEL-5 melanoma, > 100 µM in the assay on SK-OV-3 ovarian, 17.5 µM with SNB-19 CNS and 25.7 µM in the assay with UO-31 renal.

As to `Cc1cc(C(=O)CSC(=S)SC(C)(C)C)ccc1Cl`, the TGI in the assay with A498 renal was determined as 29.8 µM; in the assay with A549 NSCLC, 50 µM; in the assay on HOP-92 NSCLC it was 70.3 µM; in the assay with MALME-3M melanoma it was 33.4 µM; in the assay with SF-539 CNS it was 35.7 µM; in the assay with SK-MEL-5 melanoma, 31.7 µM. The values for the TGI with SK-OV-3 ovarian, with SNB-19 CNS and in the assay with UO-31 renal were 94.5 µM, 32 µM and 42.6 µM, respectively.
